# pIC50: −log10 of the molar value. Read-outs that look alike come from different tables or passages of the source.
# Tests used:
# [1] = molecular target: human sodium channel NaV1.2 (Homo sapiens, UniProt Q99250); test: NaV1.2 inhibition, automated patch-clamp (Q-Patch HTX), slow inactivated state (state C); assay type: cell-based; settings: for inhibition at 10 µM: read-out: NaV1.2 (% inh), 10 μM; for inhibition at 1 µM: 1 μM compound, read-out: NaV1.2 (% inh), 1 μM; for pIC50: read-out: NaV1.2 IC50
# Method in brief: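 CHO K-1 cells stably expressing human NaV1.2, whole-cell automated patch clamp, holding −100 mV; slow-inactivated state (state C) read at a 5 ms step to 0 mV after 10 s at −50 mV and 15 ms at −90 mV. Percent inhibition vs vehicle; IC50 by nonlinear least-squares fit.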
# [2] = molecular target: T1, recombinant human serotonin receptor 5-HT2A (Homo sapiens, UniProt P28223); test: 5-HT2A antagonist Ca2+ assay in CHO-K1 cells (method A aequorin luminescence / method B FLIPR fluorescence); assay type: cell-based; settings: antagonist mode vs EC80 of reference agonist, method A or B; for pIC50: read-out: 5HT2A IC50
# T1 construct: expressed in transfected cells; method B: loaded with Ca2+ dye
# Method in brief: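 Method A: CHO-K1 cells co-expressing human 5-HT2A and mitochondrial apoaequorin were given reference agonist at EC80 15 min after compound, with luminescence read. Method B: dye-loaded 5-HT2A CHO-K1 cells were pretreated with compound, then given serotonin at EC80, with FLIPR fluorescence read. IC50s came from nonlinear fits of percent inhibition.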
# [3] = 10 μM compound, hNaV1.2 CHO cells, slow inactivated state
# [4] = hNaV1.2 CHO cells, slow inactivated state
# Chain of human sodium channel NaV1.2 (Q99250 whole entry): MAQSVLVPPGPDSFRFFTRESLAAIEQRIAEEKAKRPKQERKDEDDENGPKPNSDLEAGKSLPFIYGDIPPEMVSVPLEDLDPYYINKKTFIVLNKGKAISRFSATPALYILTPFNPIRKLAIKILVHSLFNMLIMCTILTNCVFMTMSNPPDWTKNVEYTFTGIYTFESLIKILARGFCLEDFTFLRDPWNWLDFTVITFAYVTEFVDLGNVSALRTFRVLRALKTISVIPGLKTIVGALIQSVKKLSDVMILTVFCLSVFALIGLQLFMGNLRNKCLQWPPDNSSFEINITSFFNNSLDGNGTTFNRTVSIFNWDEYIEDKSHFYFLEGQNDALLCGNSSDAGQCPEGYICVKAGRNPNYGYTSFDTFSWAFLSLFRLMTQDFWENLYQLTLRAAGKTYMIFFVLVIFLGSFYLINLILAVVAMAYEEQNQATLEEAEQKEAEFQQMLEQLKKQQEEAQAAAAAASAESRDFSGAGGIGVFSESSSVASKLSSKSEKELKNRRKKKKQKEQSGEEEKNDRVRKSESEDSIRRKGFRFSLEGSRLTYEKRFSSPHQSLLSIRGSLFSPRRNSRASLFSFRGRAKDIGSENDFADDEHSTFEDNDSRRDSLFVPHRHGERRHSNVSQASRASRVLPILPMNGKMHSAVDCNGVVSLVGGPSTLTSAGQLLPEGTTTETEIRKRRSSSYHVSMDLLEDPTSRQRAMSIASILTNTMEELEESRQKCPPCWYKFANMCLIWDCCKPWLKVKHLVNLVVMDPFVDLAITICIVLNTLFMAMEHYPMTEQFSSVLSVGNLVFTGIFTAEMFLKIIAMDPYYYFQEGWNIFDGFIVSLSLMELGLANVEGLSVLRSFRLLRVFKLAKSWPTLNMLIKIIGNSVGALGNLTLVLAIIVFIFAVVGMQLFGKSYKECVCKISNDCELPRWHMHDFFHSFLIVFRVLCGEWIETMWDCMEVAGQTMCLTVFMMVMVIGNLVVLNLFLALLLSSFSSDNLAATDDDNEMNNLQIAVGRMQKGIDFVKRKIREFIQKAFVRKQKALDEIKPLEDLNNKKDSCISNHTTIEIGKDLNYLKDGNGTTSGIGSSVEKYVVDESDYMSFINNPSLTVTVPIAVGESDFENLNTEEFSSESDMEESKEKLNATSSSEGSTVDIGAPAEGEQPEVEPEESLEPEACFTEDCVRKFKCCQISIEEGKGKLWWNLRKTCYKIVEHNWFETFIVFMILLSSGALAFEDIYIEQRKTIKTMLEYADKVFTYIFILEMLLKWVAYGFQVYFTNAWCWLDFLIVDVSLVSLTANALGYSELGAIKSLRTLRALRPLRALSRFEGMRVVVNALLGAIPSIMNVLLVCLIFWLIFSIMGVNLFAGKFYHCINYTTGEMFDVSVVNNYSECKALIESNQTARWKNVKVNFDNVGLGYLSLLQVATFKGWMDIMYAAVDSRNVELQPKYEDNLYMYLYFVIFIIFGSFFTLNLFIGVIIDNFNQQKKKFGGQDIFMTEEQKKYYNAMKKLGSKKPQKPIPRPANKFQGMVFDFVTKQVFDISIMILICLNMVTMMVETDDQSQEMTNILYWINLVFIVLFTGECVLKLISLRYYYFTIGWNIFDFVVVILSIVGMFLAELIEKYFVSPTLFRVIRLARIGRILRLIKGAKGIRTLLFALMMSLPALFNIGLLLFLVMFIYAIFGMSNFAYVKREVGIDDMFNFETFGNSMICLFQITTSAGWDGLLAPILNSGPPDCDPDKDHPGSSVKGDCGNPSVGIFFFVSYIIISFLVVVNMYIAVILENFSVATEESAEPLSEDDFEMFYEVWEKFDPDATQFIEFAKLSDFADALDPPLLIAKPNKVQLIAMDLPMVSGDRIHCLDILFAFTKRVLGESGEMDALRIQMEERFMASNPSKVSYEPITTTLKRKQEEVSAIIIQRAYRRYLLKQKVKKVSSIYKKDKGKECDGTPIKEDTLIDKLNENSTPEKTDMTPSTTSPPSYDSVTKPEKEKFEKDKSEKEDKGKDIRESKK
# T1 sequence (P28223 whole entry): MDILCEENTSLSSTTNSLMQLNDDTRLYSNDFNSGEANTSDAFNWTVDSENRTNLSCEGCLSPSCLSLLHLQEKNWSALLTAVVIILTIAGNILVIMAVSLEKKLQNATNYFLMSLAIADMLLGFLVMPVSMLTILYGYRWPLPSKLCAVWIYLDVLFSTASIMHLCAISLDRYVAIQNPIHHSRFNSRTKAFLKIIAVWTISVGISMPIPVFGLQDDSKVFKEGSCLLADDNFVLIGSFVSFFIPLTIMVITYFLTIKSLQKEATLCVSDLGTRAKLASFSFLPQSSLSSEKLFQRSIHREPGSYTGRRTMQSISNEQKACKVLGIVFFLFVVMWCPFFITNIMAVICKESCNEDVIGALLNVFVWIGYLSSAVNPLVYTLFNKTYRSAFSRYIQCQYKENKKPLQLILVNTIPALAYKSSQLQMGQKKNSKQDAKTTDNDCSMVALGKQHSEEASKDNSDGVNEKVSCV
Structure (SMILES),pIC50 [2],"inhibition at 1 µM [1, 4] [%]","pIC50 [1, 4]",also measured
"COCc1cccc(OC2CCN(CCN3CCc4ccccc4C3=O)CC2)c1 [Example 196, 2-(2-(4-(3-(methoxymethyl)phenoxy)piperidin-1-yl)ethyl)-3,4-dihydroisoquinolin-1(2H)-one]",6.44,,,"inhibition at 10 µM [1, 3]: 67%"
"c1ccc2c(c1)CC(CN1CCC3(CCc4ccccc4O3)CC1)C2 [Example 410, 1′-((2,3-dihydro-1H-inden-2-yl)methyl)spiro[chromane-2,4′-piperidine]]",7.00,,6.32,
"CO[C@H](CCN1CCC(Oc2ccccc2)CC1)c1ccccc1 [Example 229, (R)-1-(3-methoxy-3-phenylpropyl)-4-phenoxypiperidine]",7.52,,5.97,
"OC(CO[C@@H]1CCc2ccccc21)CN1CC[C@@H](Oc2cccc(F)c2)C1 (stereo partly drawn) [Example 36, 1-(((R)-2,3-dihydro-1H-inden-1-yl)oxy)-3-((R)-3-(3-fluorophenoxy)pyrrolidin-1-yl)propan-2-ol]",5.75,,6.60,
"O=C1c2ccccc2CCN1CCN1CCC(Oc2ccccc2)CC1 [Example 191, 2-(2-(4-phenoxypiperidin-1-yl)ethyl)-3,4-dihydroisoquinolin-1(2H)-one]",7.30,18,,"inhibition at 10 µM [1, 3]: 52%"
"Fc1ccc(OC2CCN(CCC3Cc4ccccc4C3)CC2)cc1 [Example 178, 1-(2-(2,3-dihydro-1H-inden-2-yl)ethyl)-4-(4-fluorophenoxy)piperidine]",7.52,,5.72,
"CCC(=O)c1ccc(OCC(O)CN2CCN(c3ccccc3)CC2)cc1 (centres unmarked) [Example 88, 1-(4-(2-hydroxy-3-(4-phenylpiperazin-1-yl)propoxy)phenyl)propan-1-one]",6.24,,4.51,
"COc1ccc2c(c1)C(CN1CCC(Oc3ccccn3)CC1)CC2 (centres unmarked) [Example 95, 2-((1-((6-methoxy-2,3-dihydro-1H-inden-1-yl)methyl)piperidin-4-yl)oxy)pyridine]",6.82,9,,
"Cc1ccccc1OCC(O)CN1CCC(c2nc3ccccc3s2)CC1 (centres unmarked) [Example 91, 1-(4-(benzo[d]thiazol-2-yl)piperidin-1-yl)-3-(o-tolyloxy)propan-2-ol]",7.70,,6.77,
"O=C1c2ccc(F)cc2CN1CCN1CCC(Oc2ccc(F)cc2)CC1 [Example 188, 5-fluoro-2-(2-(4-(4-fluorophenoxy)piperidin-1-yl)ethyl)isoindolin-1-one]",7.30,32,,
"Fc1ccc(OC2CCN(CCC3CCCOC3)CC2)cc1 (centres unmarked) [Example 169, 4-(4-fluorophenoxy)-1-(2-(tetrahydro-2H-pyran-3-yl)ethyl)piperidine]",6.55,10,,
"OC(COC1CCCCC1)CN1CCC2(CC1)OCc1ccccc12 (centres unmarked) [Example 393, 1′-(cyclohexyloxy)-3-(3H-spiro[isobenzofuran-1,4′-piperidin]-1′-yl)propan-2-ol]",,,,"inhibition at 10 µM ([1]; CHO): 93%; IC50 ([2]; 5HT2A IC50, μM): 1.8 µM"
"O[C@@H](COC1CCCCC1)CN1CCC2(CCN(c3ccccc3)C2)C1 (stereo partly drawn) [Example 346, (2R)-1-(cyclohexyloxy)-3-(7-phenyl-2,7-diazaspiro[4.4]nonan-2-yl)propan-2-ol]",6.57,,6.49,
"Cc1ccc(N2CCN(CC(O)COC3CCCCC3)CC2)cc1 (centres unmarked) [Example 76, 1-(cyclohexyloxy)-3-(4-(p-tolyl)piperazin-1-yl)propan-2-ol]",7.70,,6.62,
"COc1ccccc1OC1CCN(CC2Cc3ccccc3C2)[C@@H](C)C1 (single isomer, unassigned) [Example 147]",7.15,,5.82,
"COc1ccccc1O[C@H]1CCN(CC2Cc3ccccc3C2)[C@H](C)C1 [Example 141, (2R,4S)-1-((2,3-dihydro-1H-inden-2-yl)methyl)-4-(2-methoxyphenoxy)-2-methylpiperidine]",6.70,,6.00,
"OC(COC1CCCCc2ccccc21)CN1CCC(Oc2ccccc2)CC1 (centres unmarked) [Example 240, 1-(4-phenoxypiperidin-1-yl)-3-((6,7,8,9-tetrahydro-5H-benzo[7]annulen-5-yl)oxy)propan-2-ol]",6.96,,6.02,
"CC(C1CCc2ccccc21)N1CCC(Oc2ccc(F)cc2)CC1 (centres unmarked) [Example 123, 1-(1-(2,3-dihydro-1H-inden-1-yl)ethyl)-4-(4-fluorophenoxy)piperidine]",6.36,71,,
"Fc1ccc(OC2CCN(CC3COCc4ccccc43)CC2)cc1 (centres unmarked) [Example 160, 4-(4-fluorophenoxy)-1-(isochroman-4-ylmethyl)piperidine]",6.89,32,,
"COc1ccc2c(c1)C(CN1CCC(Oc3cccc(C)n3)CC1)CC2 (centres unmarked) [Example 124, 2-((1-((6-methoxy-2,3-dihydro-1H-inden-1-yl)methyl)piperidin-4-yl)oxy)-6-methylpyridine]",6.92,34,,

# More lines, main results first:
pIC50 [2],"inhibition at 1 µM [1, 4] [%]",Structure (SMILES),"pIC50 [1, 4]",also measured
6.60,0,"c1ccc2c(c1)CCC1(CCN(CCC3Cc4ccncc4C3)CC1)O2 (centres unmarked) [Example 420, 1′-(2-(6,7-dihydro-5H-cyclopenta[c]pyridin-6-yl)ethyl)spiro[chromane-2,4′-piperidine]]",,
5.73,18,"c1ccc2c(c1)CCC1(CCN(CC3Cc4ccncc4C3)CC1)O2 (centres unmarked) [Example 412, 1′-((6,7-dihydro-5H-cyclopenta[c]pyridin-6-yl)methyl)spiro[chromane-2,4′-piperidine]]",,
5.78,,"OC(COC1CCCCC1)CN1C[C@@H]2C[C@H]1CN2c1ccccc1 (stereo partly drawn) [Example 306, 1-(cyclohexyloxy)-3-((1S,4S)-5-phenyl-2,5-diazabicyclo[2.2.1]heptan-2-yl)propan-2-ol]",,"inhibition at 10 µM [1, 3]: 60%"
< 4.78,36,"O=C1c2ccccc2CCN1CCN1C[C@@H]2C[C@H](C1)N(c1ccccc1)C2 [Example 329, 2-(2-((1S,5R)-6-phenyl-3,6-diazabicyclo[3.2.1]octan-3-yl)ethyl)-3,4-dihydroisoquinolin-1(2H)-one]",,
6.64,44,"Fc1ccc(OC2CCCN(CC3CCc4ccccc43)CC2)cc1 (centres unmarked) [Example 271, 1-((2,3-dihydro-1H-inden-1-yl)methyl)-4-(4-fluorophenoxy)azepane]",,
6.36,,"c1ccc(OC2CCN(CCO[C@@H]3CCc4ccccc43)CC2)cc1 [Example 218, (R)-1-(2-((2,3-dihydro-1H-inden-1-yl)oxy)ethyl)-4-phenoxypiperidine]",,"inhibition at 10 µM [1, 3]: 72%"
6.35,-2,"Fc1ccc(N2CCC3(CCN(CC4CCc5cccnc54)C3)C2)cc1 (centres unmarked) [Example 337, 2-((6,7-dihydro-5H-cyclopenta[b]pyridin-7-yl)methyl)-7-(4-fluorophenyl)-2,7-diazaspiro[4.4]nonane]",,
7.52,,"O=C1c2cccnc2CCN1CCN1CCC(Oc2ccc(F)cc2)CC1 [Example 207, 6-(2-(4-(4-fluorophenoxy)piperidin-1-yl)ethyl)-7,8-dihydro-1,6-naphthyridin-5(6H)-one]",,"inhibition at 10 µM [1, 3]: 38%"
8.00,,"COc1ccc2c(c1)CCCN(CCN1CCC(Oc3ccc(F)cc3)CC1)C2=O [Example 212, 2-(2-(4-(4-fluorophenoxy)piperidin-1-yl)ethyl)-7-methoxy-2,3,4,5-tetrahydro-1H-benzo[c]azepin-1-one]",,"inhibition at 10 µM [1, 3]: 48%"

# Reference: patent US11186564B2, “Dual NAV1.2/5HT2a inhibitors for treating CNS disorders” (Sunovion Pharmaceuticals Inc., priority 2016, dated 2021)
